US20240246966A1, “NEW PYRAZOLO[1,5-a] PYRIMIDINE DERIVATIVES AS SIGMA LIGANDS” (ACONDICIONAMIENTO TARRASENSE, priority 2021, published 2024)

Experiments:
[1] = tested on: mechanical hypersensitivity in SNI mice; details: spared nerve injury (SNI) mice model of neuropathic pain; cited from earlier work
Human σ1 Receptor = molecular target: T1, Human σ1 Receptor (Homo sapiens, UniProt Q99720); test: Human σ1 receptor radioligand assay ([3H](+)-pentazocine, transfected HEK-293 membranes); details: human σ1, [3H](+)-pentazocine 5 nM, binding expressed as Ki, read-out: Binding σ-1
T1 construct: expressed in transfected cells; host or cells: HEK-293
T1 sequence (Q99720 whole entry): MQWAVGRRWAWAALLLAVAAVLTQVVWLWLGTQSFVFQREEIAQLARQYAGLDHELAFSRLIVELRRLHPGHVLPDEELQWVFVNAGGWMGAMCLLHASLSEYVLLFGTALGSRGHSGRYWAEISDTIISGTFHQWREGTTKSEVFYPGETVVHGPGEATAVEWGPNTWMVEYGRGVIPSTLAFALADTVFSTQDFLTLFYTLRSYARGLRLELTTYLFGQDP
Protocol: Human σ1 Receptor Radioligand Assay
Transfected HEK-293 membranes (7 μg) were incubated with 5 nM of [^3H](+)-pentazocine in assay buffer containing Tris-HCl 50 mM at pH 8. NBS (non-specific binding) was measured by adding 10 μM haloperidol. The binding of the test compound was measured at either one concentration (% inhibition at 1 or 10 μM) or five different concentrations to determine affinity values (Ki). Plates were incubated at 37° C. for 120 minutes. After the incubation period, the reaction mix was then transferred to MultiScreen HTS, FC plates (Millipore), filtered and plates were washed 3 times with ice-cold 10 mM Tris-HCL (pH 7.4). Filters were dried and counted at approximately 40% efficiency in a MicroBeta scintillation counter (Perkin-Elmer) using EcoScint liquid scintillation cocktail.

Human σ2/TMEM97 receptor = molecular target: T2, Human σ2/TMEM97 receptor (Homo sapiens, UniProt Q5BJF2); test: Binding assay to human σ2/TMEM97 receptor ([3H]-DTG, transfected HEK-293 membranes); details: human σ2/TMEM97, [3H]-DTG 10 nM, binding expressed as Ki, read-out: Binding σ-2
T2 construct: expressed in transfected cells; host or cells: HEK-293
T2 sequence (Q5BJF2 whole entry): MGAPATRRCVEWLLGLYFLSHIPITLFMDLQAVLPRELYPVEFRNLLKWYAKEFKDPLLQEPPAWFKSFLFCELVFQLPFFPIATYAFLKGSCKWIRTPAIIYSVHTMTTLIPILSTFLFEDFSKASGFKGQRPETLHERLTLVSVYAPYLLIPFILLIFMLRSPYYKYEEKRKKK
Protocol: Binding Assay to Human ρ2/TMEM97 Receptor
Transfected HEK-293 membranes (15 μg) were incubated with 10 nM [^3H]-1,3-Di-o-tolylguanidine ( DTG) in assay buffer containing Tris-HCl 50 mM at pH 8.0. NSB (non-specific binding) was measured by adding 10 μM haloperidol. The binding of the test compound was measured at either one concentration (% inhibition at 1 or 10 μM) or five different concentrations to determine affinity values (Ki). Plates were incubated at 25° C. for 120 minutes. After the incubation period, the reaction mix was transferred to MultiScreen HTS, FC plates (Millipore), filtered and washed 3 times with ice-cold 10 mM Tris-HCL (pH 8.0). Filters were dried and counted at approximately 40% efficiency in a MicroBeta scintillation counter (Perkin-Elmer) using EcoScint liquid scintillation cocktail.

sigma-2 (σ2) site = sigma-2 (σ2) site (Homo sapiens, UniProt Q5BJF2); details: background statement; cited from earlier work
sigma-2 (σ2) site, sequence (Q5BJF2 whole entry): as above

For UKH-1114, the mechanical hypersensitivity [1] is listed as “relieved mechanical hypersensitivity”.
Compound FC(F)(F)c1ncccc1-n1ccc2cc(CN3CCC4(CCOCC4)CC3)cnc21 [Example 45, 9-((1-(2-(Trifluoromethyl)pyridin-3-yl)-1H-pyrrolo[2,3-b]pyridin-5-yl)methyl)-3-oxa-9-azaspiro[5.5]undecane] has a Ki (Human σ1 Receptor) of under 100 nM and a Ki (Human σ2/TMEM97 receptor) of 100 to 500 nM.
In the case of FC(F)(F)c1cc(-n2ccc3cc(CN4CCCOCC4)cnc32)ccn1 [Example 50, 4-((1-(2-(Trifluoromethyl)pyridin-4-yl)-1H-pyrrolo[2,3-b]pyridin-5-yl)methyl)-1,4-oxazepane], the Ki (Human σ1 Receptor) is reported as under 100 nM and the Ki (Human σ2/TMEM97 receptor) is reported as over 1000 nM.
In the case of COCC1CCN(Cc2cnc3c(-c4ccnc(C(F)(F)F)c4)cnn3c2)CC1 [Example 28, 6-((4-(Methoxymethyl)piperidin-1-yl)methyl)-3-(2-(trifluoromethyl)pyridin-4-yl)pyrazolo[1,5-a]pyrimidine], the Ki (Human σ1 Receptor) is reported as under 100 nM and the Ki (Human σ2/TMEM97 receptor) is reported as 500 to 1000 nM.
With FC(F)(F)c1cc(-n2ccc3cc(CN4CC5(CCOCC5)C4)cnc32)ccn1 [Example 47, 2-((1-(2-(Trifluoromethyl)53yridine-4-yl)-1H-pyrrolo[2,3-b]53yridine-5-yl)methyl)-7-oxa-2-azaspiro[3.5]nonane] the Ki (Human σ1 Receptor) was under 100 nM and the Ki (Human σ2/TMEM97 receptor) was under 100 nM.
In the case of COCC1CCN(Cc2cnc3c(ccn3-c3cccnc3C(F)(F)F)c2)CC1 [Example 44, 5-((4-(Methoxymethyl)piperidin-1-yl)methyl)-1-(2-(trifluoromethyl)pyridin-3-yl)-1H-pyrrolo[2,3-b]pyridine], the Ki (Human σ1 Receptor) is reported as under 100 nM and the Ki (Human σ2/TMEM97 receptor) is reported as 100 to 500 nM.
For (+)-SKF-10047, the “affinity for the sigma-2 (σ2) site” value (sigma-2 (σ2) site) is listed as “micromolar affinity”.
